{
  "source": "paper PMC8969080",
  "about": "(Dalton transactions (Cambridge, England : 2003), 2022)",
  "origin": "cited, not measured here",
  "conditions": "1:1 Metal/Ligand, 50 μM",
  "note": "Where two headings read alike, the source gives them in different places.",
  "data": [
    {"molecule": "O=C(O)CN(CCN(CC(=O)O)CC(=O)O)CCN(CC(=O)O)CC(=O)O", "note": "[DTPA, diethylenetriaminepentaacetic acid]", "values": [
      {"measurement": "Calculated pM (−log[M]free; M = Cu^2+)", "setting": "pH 6.6", "value": 9.7},
      {"measurement": "Calculated pM (−log[M]free; M = Cu^2+)", "setting": "pH 7.4", "value": 10.7}
    ]}
  ]
}
